# Data reported in patent publication US11407715B2, “Substituted indoline derivatives as dengue viral replication inhibitors” (JANSSEN PHARMACEUTICALS, INC., priority 2017, dated 2022).
# pEC50: −log10 of the molar value.
# Assays:
# DENV-2 16681 strain = test: microbe, parasite or virus in culture; format: cell-based, Dengue virus; settings: for pEC50: DENV-2 16681 eGFP, Vero cells, MOI 0.5, 3 days; for SI: SI=CC50/EC50, DENV-2 antiviral assay
# DENV-1 strain TC974#666 = test: Tetravalent RT-qPCR assay, serotype 1; format: cell-based, Dengue virus; settings: RT-qPCR serotype 1 TC974#666, Vero cells
# Procedure: (§1) The antiviral activity of the compounds of the invention was tested against DENV-1 strain TC974#666 (NCPV), DENV-2 strain 16681, DENV-3 strain H87 (NCPV) and DENV-4 strain H241 (NCPV) in a RT-qPCR assay. Therefore, Vero cells were infected with either DENV-1, or -2, or -3, or -4 in the presence or absence of test compounds. At day 3 post-infection, the cells were lysed and cell lysates were used to prepare cDNA of both a viral target (the 3′UTR of DENV; Table 2) and a cellular reference gene (β-actin, Table 2). Subsequently, a duplex real time PCR was performed on a Lightcycler480 instrument. The generated Cp value is inversely proportional to the amount of RNA expression of these targets. Inhibition of DENV replication by a test compound results in a shift of Cp's for the 3′UTR gene. On the other hand, if a test compound is toxic to the cells, a similar effect on β-actin expression will be observed. The comparative ΔΔCp method is used to calculate ECs50, which is based on the relative gene expression of the target gene (3′UTR) normalized with the cellular housekeeping gene (β-actin). In addition, CC50 values are determined based on the Cp values acquired for the housekeeping gene β-actin.
# (§2) The culture medium consisted of minimal essential medium supplemented with 2% of heat-inactivated fetal calf serum, 0.04% gentamycin (50 mg/mL) and 2 mM of L-glutamine. Vero cells, obtained from ECACC, were suspended in culture medium and 75 μL/well was added in 96-well plates (10000 cells/well), which already contain the antiviral compounds. […] In addition, each plate contains wells which are assigned as virus controls (containing cells and virus in the absence of compound) and cell controls (containing cells in the absence of virus and compound). Once the cells were added in the plates, the plates were incubated in a fully humidified incubator (37° C., 5% CO2) until the next day. Dengue viruses serotype-1, 2, 3 and 4 were diluted in order to obtain a Cp of ˜22-24 in the assay. Therefore, 25 μL of virus suspension was added to all the wells containing test compound and to the wells assigned as virus control. In parallel, 25 μL of culture medium was added to the cell controls. Next, the plates were incubated for 3 days in a fully humidified incubator (37° C., 5% CO2). After 3 days, the supernatant was removed from the wells and the cells were washed twice with ice-cold PBS (˜100 μL). The cell pellets within the 96-well plates were stored at −80° C. for at least 1 day. Next, RNA was extracted using the Cells-to-CT™ lysis kit, according to the manufacturer's guideline (Life Technologies). The cell lysates can be stored at −80C or immediately used in the reverse transcription step.
# (§3) In preparation of the reverse transcription step, mix A (table 3A) was prepared and 7.57 μL/well was dispensed in a 96-well plate. After addition of 5 μL of the cell lysates, a five minute denaturation step at 75° C. was performed (table 3B). Afterwards, 7.43 μL of mix B was added (table 3C) and the reverse transcription step was initiated (table 3D) to generate cDNA.
# (§4) Finally, a RT-qPCR mix was prepared, mix C (table 4A), and 22.02 μL/well was dispensed in 96-well LightCycler qPCR plates to which 3 μL of cDNA was added and the qPCR was performed according to the conditions in table 4B on a LightCycler 480.
# (§5) Using the LightCycler software and an in-house LIMS system, dose response curves for each compound were calculated and the half maximal effective concentration (EC50) and the half maximal cytotoxic concentration (CC50) were determined (Tables 5-8).
# DENV-2 strain 16681 = test: Tetravalent RT-qPCR assay, serotype 2; format: cell-based, Dengue virus; settings: RT-qPCR serotype 2 16681, Vero cells
# Procedure: as §1, §2, §3, §4, §5
# DENV-3 strain H87 = test: Tetravalent RT-qPCR assay, serotype 3; format: cell-based, Dengue virus; settings: RT-qPCR serotype 3 H87, Vero cells
# Procedure: as §1, §2, §3, §4, §5
# DENV-4 strain H241 = test: Tetravalent RT-qPCR assay, serotype 4; format: cell-based, Dengue virus; settings: RT-qPCR serotype 4 H241, Vero cells
# Procedure: as §1, §2, §3, §4, §5
# Vero cells = settings: African green monkey
# in vitro = settings: African green monkey
# [1] = Dengue virus, DENV2, Vero, 72 h
SMILES,pEC50 (DENV-2 16681 strain),SI (DENV-2 16681 strain),CC50 (in vitro),pEC50 (DENV-2 16681 strain; [1]),other results
"COc1cc(NC(C(=O)N2CCc3cc(OC)c(C(F)(F)F)cc32)c2ccc(Cl)cc2)cc(OCCC(C)(C)C(=O)O)c1 (single isomer, unassigned) [Compound 21B]",9.49,45200,–,–,"pEC50 (DENV-1 strain TC974#666; Dengue virus, DENV1, Vero): 9.00; pEC50 (DENV-2 strain 16681; Dengue virus, DENV2, Vero): 9.80; pEC50 (DENV-3 strain H87; Dengue virus, DENV3, Vero): 8.19; pEC50 (DENV-4 strain H241; Dengue virus, DENV4, Vero): 7.32; CC50 (Vero cells): 12000 nM"
COc1cc(NC(C(=O)N2CCc3ccc(OC(F)(F)F)cc32)c2ccc(Cl)cc2)cc(OCC2(F)CC2C(=O)O)c1 (stereo not shown) [Compound 29AB],9.28,22300,–,–,pEC50 (DENV-1 strain TC974#666): 9.64; pEC50 (DENV-2 strain 16681): 9.60; pEC50 (DENV-3 strain H87): 8.34; pEC50 (DENV-4 strain H241): 7.46; CC50 (Vero cells): 12000 nM
COc1cc(NC(C(=O)N2CCc3ccc(OC(F)(F)F)cc32)c2ccc(Cl)cc2)cc(OCC2(F)CC2C(=O)O)c1 (stereo not shown) [Compound 28AB],9.17,19000,–,–,pEC50 (DENV-1 strain TC974#666): 9.39; pEC50 (DENV-2 strain 16681): 9.51; pEC50 (DENV-3 strain H87): 8.28; pEC50 (DENV-4 strain H241): 7.16; CC50 (Vero cells): 13000 nM
COc1cc(NC(C(=O)N2CCc3ccc(OC(F)(F)F)cc32)c2ccc(Cl)cc2OC)cc(OCC2CC2C(=O)O)c1 (stereo not shown) [Compound 19BB],10.42,>148612,–,–,pEC50 (DENV-1 strain TC974#666): 10.04; pEC50 (DENV-2 strain 16681): 10.11; pEC50 (DENV-3 strain H87): 9.07; pEC50 (DENV-4 strain H241): 8.17; CC50 (Vero cells): 8800 nM
"COc1cc(NC(C(=O)N2CCc3ccc(OC(F)(F)F)cc32)c2ccc(Cl)cc2OC)cc(OCCC(C)C(=O)O)c1 (single isomer, unassigned) [Compound 17A]",7.12,147,11000 nM,–,–
"COc1cc(NC(C(=O)N2CCc3ccc(OC(F)(F)F)cc32)c2ccc(Cl)cc2OC)cc(OCCC(C)(C)C(=O)O)c1 (racemic) [Compound 18, 4-(3-((1-(4-chloro-2-methoxyphenyl)-2-oxo-2-(6-(trifluoromethoxy)indolin-1-yl)ethyl)amino)-5-methoxyphenoxy)-2,2-dimethylbutanoic acid]",–,26100,11000 nM,9.31,–
COc1cc(NC(C(=O)N2CCc3ccc(OC(F)(F)F)cc32)c2ccc(Cl)cc2)cc(OC2CC(C(=O)O)C2)c1 (stereo not shown) [Compound 7],9.31,14600,12000 nM,–,–
"COc1cc(NC(C(=O)N2CCc3cc(F)c(OC(F)(F)F)cc32)c2ccc(Cl)cc2)cc(OCC2CC2C(=O)O)c1 (single isomer, unassigned) [Compound 26A, (1R*,2R*)-2-((3-((1-(4-chlorophenyl)-2-(5-fluoro-6-(trifluoromethoxy)indolin-1-yl)-2-oxoethyl)amino)-5-methoxyphenoxy)methyl)-cyclopropanecarboxylic Acid]",10.00,>12200,14000 nM,–,–
"COc1cc(COCCC(=O)O)cc(NC(C(=O)N2CCc3ccc(OC(F)(F)F)cc32)c2ccc(Cl)cc2)c1 (racemic) [Compound 16, 3-((3-((1-(4-chlorophenyl)-2-oxo-2-(6-(trifluoromethoxy)indolin-1-yl)ethyl)amino)-5-methoxybenzyl)oxy)propanoic acid]",–,56100,16000 nM,9.48,–
COc1cc(NC(C(=O)N2CCc3ccc(OC(F)(F)F)cc32)c2ccc(Cl)cc2OC)cc(OCC2CC2C(=O)O)c1 (stereo not shown) [Compound 19AA],8.00,1030,11000 nM,–,–
"COc1cc(CCCCC(=O)O)cc(NC(C(=O)N2CCc3ccc(OC(F)(F)F)cc32)c2ccc(Cl)cc2)c1 (racemic) [Compound 14, 5-(3-((1-(4-chlorophenyl)-2-oxo-2-(6-(trifluoromethoxy)indolin-1-yl)ethyl)amino)-5-methoxyphenyl)pentanoic acid]",–,50200,9600 nM,9.64,–
"COc1cc(CCCC(=O)O)cc(NC(C(=O)N2CCc3ccc(OC(F)(F)F)cc32)c2ccc(Cl)cc2)c1 (single isomer, unassigned) [Compound 15A]",7.31,171,8400 nM,–,–
"COc1cc(NC(C(=O)N2CCc3ccc(OC(F)(F)F)cc32)c2ccc(Cl)cc2)cc(OCC(C)CC(=O)O)c1 (racemic) [Compound 4, 4-(3-((1-(4-chlorophenyl)-2-oxo-2-(6-(trifluoromethoxy)indolin-1-yl)ethyl)amino)-5-methoxyphenoxy)-3-methylbutanoic acid]",–,73900,10000 nM,9.85,–
"COc1cc(NC(C(=O)N2CCc3cc(OC)c(Cl)cc32)c2ccc(Cl)cc2)cc(OC2CC(C(=O)O)C2)c1 (stereo not shown) [Compound 32, (1s,3s)-3-(3-((2-(6-chloro-5-methoxyindolin-1-yl)-1-(4-chlorophenyl)-2-oxoethyl)amino)-5-methoxyphenoxy)cyclobutanecarboxylic Acid]",9.89,130935,15000 nM,–,–
"COc1cc(NC2CC(C(=O)O)C2)cc(NC(C(=O)N2CCc3ccc(OC(F)(F)F)cc32)c2ccc(Cl)cc2)c1 (single isomer, unassigned) [Compound 33A]",7.89,1110,17000 nM,–,–
"COc1cc(NC(C(=O)N2CCc3ccc(OC(F)(F)F)cc32)c2ccc(Cl)cc2)cc(OCC(C)CC(=O)O)c1 (single isomer, unassigned) [Compound 4A]",8.54,3090,9000 nM,–,–
"COc1cc(CCCC(=O)O)cc(NC(C(=O)N2CCc3ccc(OC(F)(F)F)cc32)c2ccc(Cl)cc2)c1 (racemic) [Compound 15, 4-(3-((1-(4-chlorophenyl)-2-oxo-2-(6-(trifluoromethoxy)indolin-1-yl)ethyl)amino)-5-methoxyphenyl)butanoic acid]",–,25500,8300 nM,9.38,–
"COc1cc(NC(C(=O)N2CCc3ccc(OC(F)(F)F)cc32)c2ccc(Cl)cc2)cc(OCCC2(C(=O)O)CC2)c1 (racemic) [Compound 3, 1-(2-(3-((1-(4-chlorophenyl)-2-oxo-2-(6-(trifluoromethoxy)indolin-1-yl)ethyl)amino)-5-methoxyphenoxy)ethyl)cyclopropane-1-carboxylic acid]",–,17700,10000 nM,9.30,–
"COc1cc(NC(C(=O)N2CCc3cc(OC)c(C(F)(F)F)cc32)c2ccc(Cl)cc2)cc(OCC2CC(C(=O)O)C2)c1 (stereo not shown) [Compound 24, (1s,3s)-3-((3-((1-(4-chlorophenyl)-2-(5-methoxy-6-(trifluoromethyl)indolin-1-yl)-2-oxoethyl)amino)-5-methoxyphenoxy)methyl)-cyclobutanecarboxylic Acid]",9.19,18300,12000 nM,–,–
"COc1cc(NC(C(=O)N2CCc3ccc(OC(F)(F)F)cc32)c2ccc(Cl)cc2)cc(OCCC(=O)O)c1 (racemic) [Compound 12, 3-(3-((1-(4-chlorophenyl)-2-oxo-2-(6-(trifluoromethoxy)indolin-1-yl)ethyl)amino)-5-methoxyphenoxy)propanoic acid]",–,9440,11000 nM,8.96,–
